From patent US20020137929A1, “1 - (3-heterocyclylphenyl) isothiourea, -isourea, -guanidine and -amidine herbicidal agents” (Intellectual Property Department, BASF Aktiengesellschaft, priority 1998, published 2002)

Tests used:
ABUTH (Velvetleaf) [1] = test: Postemergence herbicidal evaluation; format: in vivo, Abutilon theophrasti; settings: postemergence
Outline: (§1)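 Scores (0–9) reflect plant stand, vigor, malformation, size, chlorosis and general appearance relative to control, read 4 to 5 weeks after treatment and averaged where tests were repeated. Application: about 0.0156–0.500 kg/ha sprayed at 40 psi onto two-week seedlings.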

[2] = test system: CHEAL (Lambsquarters, Common); test: Postemergence herbicidal evaluation; format: in vivo, Chenopodium album; settings: postemergence
Outline: as §1

[3] = test system: IPOHE (Morningglory, Ivyleaf); test: Postemergence herbicidal evaluation; format: in vivo, Ipomoea hederacea; settings: postemergence
Outline: as §1

ECHCG (Barnyardgrass) [4] = test: Postemergence herbicidal evaluation; format: in vivo, Echinochloa crus-galli; settings: postemergence
Outline: as §1

SETVI (Foxtail, Green) = test: Postemergence herbicidal evaluation; format: in vivo, Setaria viridis; settings: postemergence
Outline: as §1

ORYSAT (Rice, Tebonnet) = test: Postemergence herbicidal evaluation; format: in vivo, Oryza sativa, (L.) Tebonnet; settings: postemergence
Outline: as §1

ZEAMX (Corn, Field) [5] = test: Postemergence herbicidal evaluation; format: in vivo, Zea mays; settings: postemergence
Outline: as §1

ABUTH (Velvetleaf) [6] = test: Preemergence herbicidal evaluation; format: in vivo, Abutilon theophrasti; settings: preemergence, rated 4-5 weeks after treatment, 0-9 scale
Outline: (§2)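 Preemergence soil application of compound, sprayed in aqueous acetone at rates equivalent to about 0.0156 to 0.500 kg per hectare onto freshly sown cups. Plant response was judged by eye on a 0-9 scale four to five weeks later.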

CASOB (Sicklepod) = test: Preemergence herbicidal evaluation; format: in vivo, Cassia obtusifolia; settings: preemergence, rated 4-5 weeks after treatment, 0-9 scale
Outline: as §2

[7] = test system: CHEAL (Lambsquarters, Common); test: Preemergence herbicidal evaluation; format: in vivo, Chenopodium album; settings: preemergence, rated 4-5 weeks after treatment, 0-9 scale
Outline: as §2

[8] = test system: IPOHE (Morningglory, Ivyleaf); test: Preemergence herbicidal evaluation; format: in vivo, Ipomoea hederacea; settings: preemergence, rated 4-5 weeks after treatment, 0-9 scale
Outline: as §2

ECHCG (Barnyardgrass) [9] = test: Preemergence herbicidal evaluation; format: in vivo, Echinochloa crus-galli; settings: preemergence, rated 4-5 weeks after treatment, 0-9 scale
Outline: as §2

[10] = test system: GLXMAW (Soybean, Williams); test: Preemergence herbicidal evaluation; format: in vivo, Glycine max, (L.) Merr. cv Williams; settings: preemergence, rated 4-5 weeks after treatment, 0-9 scale
Outline: as §2

[11] = test system: TRZAWR (Wheat, Winter, cv Riband); test: Preemergence herbicidal evaluation; format: in vivo, Triticum aestivum; settings: preemergence, rated 4-5 weeks after treatment, 0-9 scale
Outline: as §2

ZEAMX (Corn, Field) [12] = test: Preemergence herbicidal evaluation; format: in vivo, Zea mays; settings: preemergence, rated 4-5 weeks after treatment, 0-9 scale
Outline: as §2

CYPIR (Rice Flatsedge) = test: Postemergence weed control under flooded paddy conditions; format: in vivo, Cyperus iria; settings: postemergence weeds, rated 3 to 4 weeks after treatment
Outline: (§3)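 Weeds 3 to 5 cm tall and rice seedlings at the 1.5 to 2.5 leaf stage were flooded, with water held 1.5 to 3 cm above the soil. Compounds in 50/50 v/v aqueous/acetone went into the flood water at about 0.0313 to 0.500 kg/ha. Visual 0-9 ratings versus control were made 3 to 4 weeks later.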

CYPSE (Flatsedge) = test: as above; format: in vivo, Cyperus serotinus; settings: postemergence weeds, rated 3 to 4 weeks after treatment
Outline: as §3

## CC(C)OC(=O)CC1SC(=Nc2cc(-n3c(=O)cc(C(F)(F)F)n(C)c3=O)c(F)cc2Cl)N(C)C1=O (stereo not drawn) [Compound 89, Isopropyl 2-{{2-chloro-5-[3,6-dihydro-3-methyl-2,6-dioxo-4-(trifluoromethyl)-1(2H)-pyrimidinyl]-4-fluorophenyl}imino}-3-methyl-4-oxo-5-thiazolidineacetate]
ABUTH (Velvetleaf) [1]; rate 0.0158 kg/ha
  ABUTH herbicidal rating: 9.0
ABUTH (Velvetleaf) [1]; rate 0.0313 kg/ha
  ABUTH herbicidal rating: 9.0
ABUTH (Velvetleaf) [1]; rate 0.0625 kg/ha
  ABUTH herbicidal rating: 9.0
ABUTH (Velvetleaf) [1]; rate 0.1250 kg/ha
  ABUTH herbicidal rating: 9.0
[2]; rate 0.0158 kg/ha
  CHEAL herbicidal rating: 4.0
[2]; rate 0.0313 kg/ha
  CHEAL herbicidal rating: 9.0
[2]; rate 0.0625 kg/ha
  CHEAL herbicidal rating: 9.0
[2]; rate 0.1250 kg/ha
  CHEAL herbicidal rating: 9.0
[3]; rate 0.0158 kg/ha
  IPOHE herbicidal rating: 9.0
[3]; rate 0.0313 kg/ha
  IPOHE herbicidal rating: 9.0
[3]; rate 0.0625 kg/ha
  IPOHE herbicidal rating: 9.0
[3]; rate 0.1250 kg/ha
  IPOHE herbicidal rating: 9.0
ECHCG (Barnyardgrass) [4]; rate 0.0158 kg/ha
  ECHCG herbicidal rating: 2.0
ECHCG (Barnyardgrass) [4]; rate 0.0313 kg/ha
  ECHCG herbicidal rating: 9.0
ECHCG (Barnyardgrass) [4]; rate 0.0625 kg/ha
  ECHCG herbicidal rating: 9.0
ECHCG (Barnyardgrass) [4]; rate 0.1250 kg/ha
  ECHCG herbicidal rating: 9.0
SETVI (Foxtail, Green); rate 0.0158 kg/ha
  SETVI herbicidal rating: 7.0
SETVI (Foxtail, Green); rate 0.0313 kg/ha
  SETVI herbicidal rating: 9.0
SETVI (Foxtail, Green); rate 0.0625 kg/ha
  SETVI herbicidal rating: 9.0
SETVI (Foxtail, Green); rate 0.1250 kg/ha
  SETVI herbicidal rating: 9.0
ORYSAT (Rice, Tebonnet); rate 0.0158 kg/ha
  ORYSAT herbicidal rating: 1.0
ORYSAT (Rice, Tebonnet); rate 0.0313 kg/ha
  ORYSAT herbicidal rating: 4.0
ORYSAT (Rice, Tebonnet); rate 0.0625 kg/ha
  ORYSAT herbicidal rating: 6.5
ORYSAT (Rice, Tebonnet); rate 0.1250 kg/ha
  ORYSAT herbicidal rating: 8.0
ZEAMX (Corn, Field) [5]; rate 0.0158 kg/ha
  ZEAMX herbicidal rating: 7.5
ZEAMX (Corn, Field) [5]; rate 0.0313 kg/ha
  ZEAMX herbicidal rating: 7.5
ZEAMX (Corn, Field) [5]; rate 0.0625 kg/ha
  ZEAMX herbicidal rating: 8.5
ZEAMX (Corn, Field) [5]; rate 0.1250 kg/ha
  ZEAMX herbicidal rating: 9.0
ABUTH (Velvetleaf) [6]; 0.0156 kg/ha
  ABUTH rating: 1.5
ABUTH (Velvetleaf) [6]; 0.0313 kg/ha
  ABUTH rating: 6.5
ABUTH (Velvetleaf) [6]; 0.0625 kg/ha
  ABUTH rating: 9.0
ABUTH (Velvetleaf) [6]; 0.1250 kg/ha
  ABUTH rating: 9.0
ABUTH (Velvetleaf) [6]; 0.2500 kg/ha
  ABUTH rating: 9.0
ABUTH (Velvetleaf) [6]; 0.5000 kg/ha
  ABUTH rating: 9.0
CASOB (Sicklepod); 0.0156 kg/ha
  CASOB rating: 0.0
CASOB (Sicklepod); 0.0313 kg/ha
  CASOB rating: 0.0
CASOB (Sicklepod); 0.0625 kg/ha
  CASOB rating: 0.0
CASOB (Sicklepod); 0.1250 kg/ha
  CASOB rating: 3.0
CASOB (Sicklepod); 0.2500 kg/ha
  CASOB rating: 6.0
CASOB (Sicklepod); 0.5000 kg/ha
  CASOB rating: 9.0
[7]; 0.0156 kg/ha
  CHEAL rating: 8.0
[7]; 0.0313 kg/ha
  CHEAL rating: 9.0
[7]; 0.0625 kg/ha
  CHEAL rating: 9.0
[7]; 0.1250 kg/ha
  CHEAL rating: 9.0
[7]; 0.2500 kg/ha
  CHEAL rating: 9.0
[7]; 0.5000 kg/ha
  CHEAL rating: 9.0
[8]; 0.0156 kg/ha
  IPOHE rating: 0.0
[8]; 0.0313 kg/ha
  IPOHE rating: 0.0
[8]; 0.0625 kg/ha
  IPOHE rating: 0.5
[8]; 0.1250 kg/ha
  IPOHE rating: 1.5
[8]; 0.2500 kg/ha
  IPOHE rating: 9.0
[8]; 0.5000 kg/ha
  IPOHE rating: 9.0
ECHCG (Barnyardgrass) [9]; 0.0156 kg/ha
  ECHCG rating: 0.0
ECHCG (Barnyardgrass) [9]; 0.0313 kg/ha
  ECHCG rating: 0.0
ECHCG (Barnyardgrass) [9]; 0.0625 kg/ha
  ECHCG rating: 0.0
ECHCG (Barnyardgrass) [9]; 0.1250 kg/ha
  ECHCG rating: 2.0
ECHCG (Barnyardgrass) [9]; 0.2500 kg/ha
  ECHCG rating: 5.5
ECHCG (Barnyardgrass) [9]; 0.5000 kg/ha
  ECHCG rating: 9.0
[10]; 0.0156 kg/ha
  GLXMAW rating: 0.0
[10]; 0.0313 kg/ha
  GLXMAW rating: 0.0
[10]; 0.0625 kg/ha
  GLXMAW rating: 1.0
[10]; 0.1250 kg/ha
  GLXMAW rating: 2.0
[10]; 0.2500 kg/ha
  GLXMAW rating: 8.5
[10]; 0.5000 kg/ha
  GLXMAW rating: 9.0
[11]; 0.0156 kg/ha
  TRZAWR rating: 0.0
[11]; 0.0313 kg/ha
  TRZAWR rating: 0.0
[11]; 0.0625 kg/ha
  TRZAWR rating: 0.5
[11]; 0.1250 kg/ha
  TRZAWR rating: 2.0
[11]; 0.2500 kg/ha
  TRZAWR rating: 6.5
[11]; 0.5000 kg/ha
  TRZAWR rating: 9.0
ZEAMX (Corn, Field) [12]; 0.0156 kg/ha
  ZEAMX rating: 0.0
ZEAMX (Corn, Field) [12]; 0.0313 kg/ha
  ZEAMX rating: 0.0
ZEAMX (Corn, Field) [12]; 0.0625 kg/ha
  ZEAMX rating: 1.0
ZEAMX (Corn, Field) [12]; 0.1250 kg/ha
  ZEAMX rating: 6.5
ZEAMX (Corn, Field) [12]; 0.2500 kg/ha
  ZEAMX rating: 7.5
ZEAMX (Corn, Field) [12]; 0.5000 kg/ha
  ZEAMX rating: 9.0
CYPIR (Rice Flatsedge); Rate 0.0313 kg/ha
  Herbicidal rating CYPIR: 0.0
CYPIR (Rice Flatsedge); Rate 0.0625 kg/ha
  Herbicidal rating CYPIR: 0.0
CYPIR (Rice Flatsedge); Rate 0.1250 kg/ha
  Herbicidal rating CYPIR: 2.0
CYPIR (Rice Flatsedge); Rate 0.2500 kg/ha
  Herbicidal rating CYPIR: 4.0
CYPSE (Flatsedge); Rate 0.0313 kg/ha
  Herbicidal rating CYPSE: 0.0
CYPSE (Flatsedge); Rate 0.0625 kg/ha
  Herbicidal rating CYPSE: 0.0
CYPSE (Flatsedge); Rate 0.1250 kg/ha
  Herbicidal rating CYPSE: 4.0
CYPSE (Flatsedge); Rate 0.2500 kg/ha
  Herbicidal rating CYPSE: 6.0
